Consider four compounds from patent US20090318552A1, “Pharmaceutical composition comprising shikonin derivatives from lithospermum erythrorhizo dor treating or preventing diabetes mellitus and the use thereof” (priority 2006, published 2009).

“Also recorded” adds a separate entry of the source.

T1 sequence (Q09427 whole entry): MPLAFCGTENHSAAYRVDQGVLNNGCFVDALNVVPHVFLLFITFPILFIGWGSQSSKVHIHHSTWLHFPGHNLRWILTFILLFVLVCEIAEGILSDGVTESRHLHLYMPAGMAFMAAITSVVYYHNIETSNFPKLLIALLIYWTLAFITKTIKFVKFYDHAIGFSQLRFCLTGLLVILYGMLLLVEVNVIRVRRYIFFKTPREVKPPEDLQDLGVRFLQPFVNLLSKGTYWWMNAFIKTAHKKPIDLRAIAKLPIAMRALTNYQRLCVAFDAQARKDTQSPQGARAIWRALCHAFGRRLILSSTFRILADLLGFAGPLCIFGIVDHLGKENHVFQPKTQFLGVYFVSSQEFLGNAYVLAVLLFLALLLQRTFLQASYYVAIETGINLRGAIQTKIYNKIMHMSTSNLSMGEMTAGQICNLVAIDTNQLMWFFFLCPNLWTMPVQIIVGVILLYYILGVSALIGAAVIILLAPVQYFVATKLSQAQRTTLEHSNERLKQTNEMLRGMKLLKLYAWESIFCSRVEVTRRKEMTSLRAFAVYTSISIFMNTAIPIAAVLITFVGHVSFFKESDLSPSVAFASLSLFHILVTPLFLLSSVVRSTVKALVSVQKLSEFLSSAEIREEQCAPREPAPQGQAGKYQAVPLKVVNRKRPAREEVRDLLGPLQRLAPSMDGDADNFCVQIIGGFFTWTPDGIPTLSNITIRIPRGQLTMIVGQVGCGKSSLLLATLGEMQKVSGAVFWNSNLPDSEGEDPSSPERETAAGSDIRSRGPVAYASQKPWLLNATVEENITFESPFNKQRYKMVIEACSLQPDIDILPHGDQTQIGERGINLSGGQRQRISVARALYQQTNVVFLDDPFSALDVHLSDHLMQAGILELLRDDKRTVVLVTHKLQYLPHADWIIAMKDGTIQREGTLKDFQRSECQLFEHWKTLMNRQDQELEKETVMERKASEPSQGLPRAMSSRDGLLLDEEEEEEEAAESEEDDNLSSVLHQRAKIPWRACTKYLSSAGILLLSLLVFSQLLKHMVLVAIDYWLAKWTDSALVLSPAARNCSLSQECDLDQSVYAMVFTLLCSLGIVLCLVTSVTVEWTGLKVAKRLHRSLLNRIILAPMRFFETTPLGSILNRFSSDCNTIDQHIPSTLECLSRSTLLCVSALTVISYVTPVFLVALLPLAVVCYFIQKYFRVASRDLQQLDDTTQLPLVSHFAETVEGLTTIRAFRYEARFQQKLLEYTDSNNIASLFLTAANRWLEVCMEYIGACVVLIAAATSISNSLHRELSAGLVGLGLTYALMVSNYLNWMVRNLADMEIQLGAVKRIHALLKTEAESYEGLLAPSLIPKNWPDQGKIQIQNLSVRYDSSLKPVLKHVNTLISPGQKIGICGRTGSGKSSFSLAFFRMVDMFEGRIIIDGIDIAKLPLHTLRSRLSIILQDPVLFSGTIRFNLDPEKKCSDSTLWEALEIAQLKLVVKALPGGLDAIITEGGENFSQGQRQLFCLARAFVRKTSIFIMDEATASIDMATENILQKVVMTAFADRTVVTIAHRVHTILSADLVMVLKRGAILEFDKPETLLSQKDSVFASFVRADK
T1 sequence (A0A1U7QRT4 1-390): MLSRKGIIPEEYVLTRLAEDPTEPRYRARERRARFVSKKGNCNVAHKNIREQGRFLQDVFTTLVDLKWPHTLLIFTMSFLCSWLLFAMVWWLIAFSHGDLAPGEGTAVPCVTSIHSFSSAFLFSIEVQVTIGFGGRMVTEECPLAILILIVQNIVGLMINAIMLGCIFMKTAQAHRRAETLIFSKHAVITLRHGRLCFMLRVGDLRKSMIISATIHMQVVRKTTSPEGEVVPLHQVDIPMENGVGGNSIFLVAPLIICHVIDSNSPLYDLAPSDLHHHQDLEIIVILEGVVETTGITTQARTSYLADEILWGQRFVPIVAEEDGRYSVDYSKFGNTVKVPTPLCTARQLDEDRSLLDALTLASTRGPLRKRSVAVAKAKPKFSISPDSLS

This test concerns the target T1, KATP ion channels of beta cells in the pancreas (HIT-T15 cells) (UniProt A0A1U7QRT4+Q09427).
T1 construct: endogenous in cells; host or cells: HIT-T15 cells
In words: Electro-physiological experiment: whole cell patch clamp recording of KATP current. Format: cell-based. Particulars: single compounds vs GBC; FIG. 5. As for the experimental part: HIT-T15 cells used for the experimental examples below were cultivated in an RPMI 1640 culture medium containing horse serum (10%, v/v), fetal bovine serum (2.5% v/v), and 1% penicillin-streptomycin, in a 5% CO2 incubator at 37° C.
Since type II diabetes is directly related to the KATP ion channels of beta cells in the pancreas (Tarasov, A. et al., Diabetes., 53(3), pp. S113-S122, 2004), it was tested whether or not the Lithospermum erythrorhizon extract obtained in the above example or the shikonin compounds isolated therefrom blocks the KATP ion channels of beta cells in the pancreas.
The ion current was recorded by a conventional whole cell patch clamp method, using a patch clamp amplifier (EPC-9, Heka Elektronik, Lambrecht, Germany). The measurement electrode was pulled from a borosilicate glass capillary using a puller (DMZ-Universal Puller; Dagan Co., USA). The electrode was selected to have a resistance of 6 to 9 MΩ when a solution was filled in the electrode. A cover glass, to which the cells were adhered, was placed on a microscope, and the extra-cellular fluid was allowed to flow, due to gravity, at a speed of up to 0.5 ml/min. When measuring the KATP electric current, the solution inside the electrode included (in mM): 10 NaCl, 102 KCl, 1 CaCl2, 1 MgCl2, 10 HEPES, 0.1 Na2-ATP, 1 Na2-GTP, and 10 EGTA (pH 7.2). To utilize the voltage-clamp method in taking records, the capacitance and series resistance of the cell membranes were compensated by 80% or higher, and the low-pass filter was set to 1 kHZ during the experiments. To measure the KATP electric current, the cell solution was substituted with 110 mM of a barium solution (mM: 110 BaCl2, 10 HEPES, 10 glucose), after which the membrane potential was fixed at −60 mV, and the resulting introvert current was recorded. The experiment results were stored in a Pentium level IBM computer and analyzed using Pulse/Pulsefit (v8.65) software (Heka Elektronik, Lambrecht, Germany), and all of the experiments were performed at room temperature.
As to `CC(C)=CCC(OC(=O)C=C(C)C)C1=CC(=O)c2c(O)ccc(O)c2C1=O` (stereo not drawn) [DS, β. β-dimethylacryl Shikonin], the “inhibition of KATP ion channels by shikonin single compounds compared with GBC” value is on record as “effectively inhibit KATP ion channels; also recorded: the best in providing the inhibitory effects”.
As for `CCC(C)C(=O)OC(CC=C(C)C)C1=CC(=O)c2c(O)ccc(O)c2C1=O` (stereo not drawn) [MS, α-methyl-n-butyryl Shikonin], the “inhibition of KATP ion channels by shikonin single compounds compared with GBC” value was “effectively inhibit KATP ion channels”.
To `CC(C)=CCC(OC(=O)C(C)C)C1=CC(=O)c2c(O)ccc(O)c2C1=O` (stereo not shown) [BS, Isobutyryl Shikonin] belongs “effectively inhibit KATP ion channels”; to `CC(C)=CCC(OC(=O)CC(C)C)C1=CC(=O)c2c(O)ccc(O)c2C1=O` (stereo not shown) [VS, Isovaleryl Shikonin], “effectively inhibit KATP ion channels; also recorded: the best in providing the inhibitory effects”.
